For the test, the target named is T1, human S1P1 receptors (Homo sapiens, UniProt P21453).
T1 construct: host or cells: HEK293
Briefly: S1P1R antagonist assay (fluorescent membrane potential dye, cAMP readout). The class given is cell-based. As to conditions: HEK293 cells expressing human S1P1 receptors and CNG channel; 500 nM NECA; S1P1R agonist 10 nM; 90 minutes; read-out: EC50 or IC50 value. The text has this: The S1P1R antagonist assay is a fluorescent membrane potential dye measurement assay, indicative of intracellular cAMP changes due to G protein-coupled receptor activation. HEK293 cells engineered to express human S1P1 receptors and a cyclic nucleotide-gated (CNG) channel are obtained from BD Biosciences, 80300-250. The CNG channels are activated by elevated levels of cAMP, resulting in ion flux and cell membrane depolarization. Membrane depolarization is detected with a membrane potential dye. Stimulation of the cells with 5′-(N-ethylcarboxamido)adenosine (NECA), an A2b receptor agonist (Sigma, E2387), elicits an A2bR-dependent increase in cAMP.
Subsequent exposure of the cells to a S1P1R agonist suppresses the NECA induced increase in cAMP through S1P1R-specific signaling by inhibiting adenylyl cyclase and the formation of cAMP from ATP. The degree to which a test compound overcomes the S1P1R agonist suppression of the NECA induced increase in cAMP is a measure of S1P1R antagonist activity. Antagonist activity is quantified as the IC50 (i.e., the concentration needed to elicited one-half of the maximum response of the test compound) and/or as the EC50 (i.e., the concentration needed to elicited one-half of the NECA induced stimulation).
Day 1: Freshly thawed cells were plated into 384-well plates (Corning, 3683) at a density of 14,000 cells/well in 20 μL, complete media and incubated for 16 hours at 37° C., 5% CO2 and 99% relative humidity. Complete media included Dulbecco's modified Eagle's medium (Invitrogen, 11965-092), 10% Fetal bovine serum (Hyclone, SH30071.03), 250 μg/mL geneticin (Invitrogen, 10131-027), and 1 μg/mL Puromycin (Fluka, 82595).
Day 2: Membrane potential dye (20 μL, BD Biosciences, 341833) was added to each well and the plates were incubated for 2.5 hours at ambient temperature. Test compounds (20 μL) were added to the wells at various concentrations (≦10 μM, 1 to 3 dilutions) in a NECA base solution and incubated for 90 minutes in the presence of the S1P1R agonist {4-((4-phenyl-5-trifluoromethyl-2-thienyl)methoxy)benzyl}-3-azetidinecarboxylic acid (10 nM). The NECA-base solution contained Dulbecco's phosphate-buffered saline (Invitrogen, 14190-136), 2.5% DMSO (Fluka, 41648), 25 μM Ro 20-1724 (Sigma, B8279), and 500 nM NECA).
Assay plates were read with a PerkinElmer EnVision reader (Excitation 350 nm, Emission 590 nm) at time T=0 minutes, before compound addition and at time T=90 minutes. The signal was calculated as the ratio T90/T0. Data was analyzed in ActivityBase XE and graphs showing log of compound concentration (X-axis) vs. % activity (Y-axis) were generated for IC50 determinations. Percent activity was calculated with the following formula: (Signal−Agonist Control Signal)/(NECA Control Signal−Agonist Control Signal)×100.

T1 sequence (P21453 whole entry): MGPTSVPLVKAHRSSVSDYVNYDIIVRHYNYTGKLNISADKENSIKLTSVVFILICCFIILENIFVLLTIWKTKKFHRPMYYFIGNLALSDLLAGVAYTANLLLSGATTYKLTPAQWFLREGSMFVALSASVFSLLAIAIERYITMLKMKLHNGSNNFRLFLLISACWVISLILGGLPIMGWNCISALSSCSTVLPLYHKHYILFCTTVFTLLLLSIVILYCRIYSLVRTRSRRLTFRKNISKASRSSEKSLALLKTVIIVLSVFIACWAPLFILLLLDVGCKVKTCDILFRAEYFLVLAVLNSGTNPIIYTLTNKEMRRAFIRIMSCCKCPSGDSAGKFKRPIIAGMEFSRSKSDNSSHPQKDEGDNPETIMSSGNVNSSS

As to `Cc1ccccc1C[C@@H]1C[C@@H](C(=O)Nc2ccc(Oc3ccc(F)cc3)cc2)N(C(=O)Cn2nccn2)C1` [Compound 48, (2S,4R)-1-(2-(2H-1,2,3-triazol-2-yl)acetyl)-N-(4-(4-fluorophenoxy)phenyl)-4-(2-methylbenzyl)pyrrolidine-2-carboxamide], the IC50 was at most 300 nM.

For the molecule `CCN1CCN(CC(=O)N[C@@H](COCc2ccccc2)C(=O)Nc2ccc(Oc3ccc(F)cc3)cc2)CC1` [Compound 114, (S)-3-(benzyloxy)-2-(2-(4-ethylpiperazin-1-yl)acetamido)-N-(4-(4-fluorophenoxy)phenyl)propanamide], the IC50 was above 1000 nM.

For the molecule `O=C(Nc1ccc(Oc2ccc(F)cc2)cc1)[C@@H]1C[C@@H](Cc2ccccc2C(F)(F)F)CN1C(=O)Cn1cncn1` [Compound 54, (2S,4R)-1-(2-(1H-1,2,4-triazol-1-yl)acetyl)-N-(4-(4-fluorophenoxy)phenyl)-4-(2-(trifluoromethyl)benzyl)pyrrolidine-2-carboxamide], the IC50 was at most 300 nM.

`COc1ccc(CCC(=O)N[C@@H](COCc2ccccc2)C(=O)Nc2ccc(Oc3ccc(F)cc3)cc2)cc1Cl` [Compound 81, (S)-3-(benzyloxy)-2-(3-(3-chloro-4-methoxyphenyl)propanamido)-N-(4-(4-fluorophenoxy)phenyl)propanamide]: the IC50 was above 1000 nM.

As for `CN(C)C(=O)CCC(=O)NC(COCc1ccccc1)C(=O)Nc1ccc(Oc2ccccc2)cc1` (stereo not drawn) [Compound 339, N,N-dimethyl-N′-(2-oxo-1-{[(phenylmethyl)oxy]methyl}-2-{[4-(phenyloxy)phenyl]amino}ethyl)butanediamide], the IC50 was above 1000 nM.

As to `O=C(CN1CCSCC1)N[C@@H](COCc1ccccc1)C(=O)Nc1ccc(Oc2ccc(F)cc2)cc1` [Compound 266, (S)-3-(benzyloxy)-N-(4-(4-fluorophenoxy)phenyl)-2-(2-thiomorpholinoacetamido)propanamide], the IC50 was 300 to 1000 nM.

`O=C(Nc1ccc(Oc2ccc(F)cc2)cc1)[C@@H]1C[C@@H](Cc2ccccc2)CN1C(=O)Cc1c[nH]c2ccccc12` [Compound 98, (2S,4R)-1-(2-(1H-indol-3-yl)acetyl)-4-benzyl-N-(4-(4-fluorophenoxy)phenyl)pyrrolidine-2-carboxamide]: the IC50 is at most 300 nM.

With `O=C(Nc1ccc(Oc2ccc(F)cc2)cc1)[C@@H]1C[C@@H](OCc2ccccc2)CN1C(=O)Cn1cncn1` [Compound 252, (2S,4R)-1-(2-(1H-1,2,4-triazol-1-yl)acetyl)-4-(benzyloxy)-N-(4-(4-fluorophenoxy)phenyl)pyrrolidine-2-carboxamide], the IC50 is at most 300 nM.

On to `O=C(NC(COCc1ccccc1)C(=O)Nc1ccc(Oc2ccccc2)cc1)c1cc2ccccc2o1` (stereo not drawn) [Compound 366, N-(2-oxo-1-{[(phenylmethyl)oxy]methyl}-2-{[4-(phenyloxy)phenyl]amino}ethyl)-1-benzofuran-2-carboxamide], for which the IC50 was above 1000 nM.

With `CCCOc1ccc(C(=O)NC(COCc2ccccc2)C(=O)Nc2ccc(Oc3ccccc3)cc2)cc1` (stereo not drawn) [Compound 345, N-(2-oxo-1-{[(phenylmethyl)oxy]methyl}-2-{[4-(phenyloxy)phenyl]amino}ethyl)-4-(propyloxy)benzamide], the IC50 is above 1000 nM.

Take `O=C(Cc1ccccc1F)N[C@@H](COCc1ccccc1)C(=O)Nc1ccc(Oc2ccccc2)cc1` [Compound 196, (S)-2-(2-(2-fluorophenyl)acetamido)-3-benzyloxy-N-(4-phenoxyphenyl)propanamide]: the IC50 was 300 to 1000 nM.

`CCN(CC)C(=O)C1CCCN(CC(=O)N[C@@H](COCc2ccccc2)C(=O)Nc2ccc(Oc3ccc(F)cc3)cc2)C1` (stereo partly drawn) [Compound 231, 1-(2-((S)-3-(benzyloxy)-1-(4-(4-fluorophenoxy)phenylamino)-1-oxopropan-2-ylamino)-2-oxoethyl)-N,N-diethylpiperidine-3-carboxamide]: the IC50 was in the range of 300 to 1000 nM.

Source of the values: patent US8791102B2, “Acetanilide sphingosine-1-phosphate receptor antagonists” (Exelixis, Inc., priority 2008, dated 2014).
